Key:
[1] = tested on: COS7 cells; test: Incorporation of [1-14C]photo-Met and [3H]Phe into newly synthesized protein; assay type: cell-based, monkey
Experimental: Cells were washed 6 times with PBS and lysed in 0.5% Triton X-100, 0.2% sodium deoxycholate. Aggregated DNA was removed, protein was precipitated^43, the pellet was redissolved in 0.3 ml 0.5% SDS and subjected to a second round of precipitation. […] The dried pellet was redissolved and processed for scintillation counting (data of Table 1 and FIG. 4b) or processed as follows for amino acid analysis (FIG. 2b): the pellet was dissolved in 600 µl 50 mM NH4HCO3, 0.5% SDS, 3 mM CaCl2 containing 0.25 mg pronase (Roche) followed by incubation at 37° C. for 20 h. The sample was lyophilized, dissolved in 600 μl of 7 N HCl containing 4 mg of glutamic acid and 6 mg of photo-Met and heated to 70° C. for 24 h. A Dowex 50WX8 column (1.6×24 cm) was prepared^18 and equilibrated with 0.1 M sodium citrate pH 3.8. The sample was concentrated to 50 μl in a speed-vak, diluted to 1 ml with 0.1 M sodium citrate pH 3.8, and loaded onto the column. The column was eluted at 24° C. at a flow rate of 20 ml/h with 70 ml 0.1 M sodium citrate pH 3.8, 26 ml 0.1 M sodium citrate pH 4.3 and 100 ml of 0.1 M sodium citrate pH 4.5. Fractions of 3 ml were collected and assayed for absorbance at 350 nm, radioactivity by scintillation counting, and amino groups by the fluorescamine method^44.
To decrease competition for activation by tRNA synthetases, media devoid of the structurally related amino acids Leu and Met (LM-2) or, for some experiments, devoid of Leu, Met, Ile and Val (LM-4) were used. Proteins incorporated radioactivity as shown by autoradiography after separation by SDS-PAGE (FIG. 2a, lane 3). […] 88% of the radioactivity in the labeled proteins was intact [1-^14C]photo-Met (FIG. 2b, photo-Met). A small peak eluting slightly earlier than glutamic acid (FIG. 2 B, Glu) contained 7% of the radioactivity. This peak was also observed if free [1-^14C]photo-Met was heated with HCl under the conditions of the hydrolysis (data not shown) and therefore represents a product of thermal decomposition of the amino acid. Under the conditions employed, radioactivity originating from degradation/re-integration would be expected to appear as aspartate and glutamate (oxidative release of [^14C]CO2, metabolism via pyruvate carboxylase, citric acid cycle and transamination to Gln and Asn that will be hydrolyzed to Glu and Asp by hot HCl). However, no radioactivity was incorporated via this pathway. We conclude that at least 95% of incorporated radioactivity represents intact [1-^14C]photo-Met. To obtain quantitative data on the frequency of incorporation of photo-Met into newly synthesized protein, we performed co-labeling with [1-^14C]photo-Met and [^3H]Phe. […] Two in three hundred amino acids in newly synthesized protein will be photo-Met.

[2] = tested on: COS7 cells; test: Cell viability after UV irradiation by trypan blue exclusion; assay type: cell-based, monkey
Experimental: COS7 (monkey kidney) cells were grown in DMEM high glucose (Gibco no. 11995; with L-glutamine and Na-pyruvate)+10% FCS. Typically, 3 cm2 of cells are needed for a cross-linking experiment with detection by western blotting. At about 70%, medium was replaced by LM-4 (DMEM lacking Met, Leu, Ile and Val and phenol red, supplemented with 5% dialyzed FCS) or by LM-2 (LM-4+1 mM of each Ile and Val). Photo-amino acids were added to a final concentration of 4 mM photo-Leu and photo-Ile, 1.7 mM photo-Met and cells were cultivated for further 22 h followed by washing with PBS and UV-irradiation using a 200 W high pressure mercury lamp (Oriel Photomax) with a glass filter to remove wavelengths shorter 310 nm. The samples were placed at a distance of 38 cm to the light source, corresponding to a illuminated area of 105 mm diameter. […] We used an irradiation time 1-3 min for experiments with living cells. […] Lysis of cells, SDS-PAGE and western blotting were done as described^33. For immunoprecipitation, cells were lysed in 20 mM Hepes/NaOH pH 7.4, 100 mM NaCl, 5 mM EDTA, 1% Triton X 100, 0.5% sodium deoxycholate, the lysate was cleared with protein-A beads and incubated with beads that were preincubated with polyclonal anti-myc or anti-HA antibody. Beads were collected and washed three times each with 20 mM Hepes/NaOH pH 7.25, 0.5% CHAPS and with 100 mM Tris-HCl pH 8.3, 150 mM NaCl, 2 mM EDTA, 0.1% w/v SDS, 0.5% w/v Nonidet P40, 0.5% w/v sodiumdeoxycholate. Proteins were eluted from beads by heating with reducing SDS-PAGE sample buffer.
Unnatural amino acids frequently are toxic to cells. To find out if this is the case for photo-amino acids of the invention, we monitored in COS7 cells protein biosynthesis by incorporation of [^3H]Phe and viability by trypan blue exclusion of cells grown in the presence or absence of the photo-amino acids photo-Leu, photo-Met and photo-Ile. Due to the lack of two essential amino acids in the growth medium, protein biosynthesis is reduced to about 65% of that in a full growth medium. […] Although cells grew slightly slower than in full growth medium, viability (Table 2) and cell morphology (not shown) were unaffected.

[3] = tested on: HA-tagged human PGRMC1; test: Competition of PGRMC1 cross-linking by natural amino acids; assay type: cell-based; conditions: 3 mM competing amino acid, COS7 cells in LM-4
Experimental: FIG. 4: Specificity of incorporation and cross-linking by photo-Met and photo-Leu. COS7 cells were transfected with HA-tagged human PGRMC1 and were grown in LM-4 in the absence or presence of photo-Leu (A) or photo-Met (B) with addition of 3 mM of the indicated competing amino acid. cross-linked products formed after UV-irradiation were detected by SDS-PAGE followed by western blotting against the HA-epitope. (C) COS7 cells were grown in the presence of 1.7 mM [1-^14C]photo-Met, a constant trace amount of [^3H]Phe and 3 mM of competing unlabeled amino acids as indicated in the legend. Protein was precipitated and protein-bound radioactivity was determined by scintillation counting. […] The control value obtained in the absence of competing amino acid (con) is set to 100. Data are average±SD of triplicate determinations.
If so, addition of the complementary naturally occurring amino acid should strongly reduce incorporation and inhibit photo-crosslinking. […] To find out if competition for cross-linking reflects competition for incorporation, we competed incorporation of [1-^14C]photo-Met with the same set of amino acids (FIG. 4c). […] It should be noted that Met, Val, Leu and Ile all are transported into cells by the L-type transport system^25, which presumably also transports the three photo-amino acids. The strong difference in competition by Met and Leu versus Val and Ile excludes competition at the level of uptake.

CC1(CCC(N)C(=O)O)N=N1 [photo-Met, L-2-amino-5,5′-azi-hexanoic acid]
frequency of substitution of photo-Met for Met [1]: 35% | Cell viability ([2]; 1 min UV): 99.4 ± 0.5% | Cell viability ([2]; 1 min UV + 1 h chase): 96.1 ± 1.3% | Cell viability ([2]; 3 min UV): 99.5 ± 0.4% | Cell viability ([2]; 3 min UV + 1 h chase): 91.9 ± 6.8% | Cell viability ([2]; no UV + 1 h chase at 37 degree Celsius in PBS): 99.4 ± 0.4% | Cell viability ([2]; no UV, percent ± SD of viable cells): 99.8 ± 0.3% | competition of cross-linking by Met, Val, Leu and Ile [3]: mainly by Met, and to a lower extent by Leu | effect of Val and Ile on cross-linking [3]: did not compete, but even enhance

From patent publication US20090211893A1, “Photo-Activatable Amino Acids” (priority 2005, published 2009)
